Assay [1] has as its target T1, AHR (Mus musculus, UniProt P30561).
T1 sequence (P30561 1-848 P471L/N533S/M589L): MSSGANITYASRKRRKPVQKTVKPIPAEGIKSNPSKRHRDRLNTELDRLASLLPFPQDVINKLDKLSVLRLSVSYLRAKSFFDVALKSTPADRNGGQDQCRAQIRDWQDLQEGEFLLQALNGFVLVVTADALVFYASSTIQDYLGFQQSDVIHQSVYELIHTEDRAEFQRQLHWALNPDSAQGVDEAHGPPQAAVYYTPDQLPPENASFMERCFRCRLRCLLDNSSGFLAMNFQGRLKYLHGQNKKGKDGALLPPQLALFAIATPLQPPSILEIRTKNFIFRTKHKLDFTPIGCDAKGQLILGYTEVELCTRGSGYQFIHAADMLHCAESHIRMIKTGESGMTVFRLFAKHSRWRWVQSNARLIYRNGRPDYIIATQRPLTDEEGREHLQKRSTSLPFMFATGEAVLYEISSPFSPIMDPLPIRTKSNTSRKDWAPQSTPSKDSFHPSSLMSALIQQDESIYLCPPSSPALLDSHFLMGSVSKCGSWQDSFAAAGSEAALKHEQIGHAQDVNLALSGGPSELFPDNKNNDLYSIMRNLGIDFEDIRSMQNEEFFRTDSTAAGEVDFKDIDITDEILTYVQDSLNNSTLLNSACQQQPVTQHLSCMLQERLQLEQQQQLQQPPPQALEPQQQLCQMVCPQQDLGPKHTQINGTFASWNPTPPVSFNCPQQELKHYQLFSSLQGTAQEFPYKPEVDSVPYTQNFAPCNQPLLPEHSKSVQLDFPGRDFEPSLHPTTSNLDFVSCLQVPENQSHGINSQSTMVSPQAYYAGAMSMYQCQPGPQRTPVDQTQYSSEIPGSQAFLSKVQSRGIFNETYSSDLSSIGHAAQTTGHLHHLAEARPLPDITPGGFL
Nature of the assay: In vitro assay 3: antagonism in mouse cell line (AHR transactivation, firefly luciferase reporter, kynurenic acid prestimulated). The class given is cell-based. The note with it: 200 μM kynurenic acid, 20 hours, read-out: AHR Antagonism Mouse IC50. The essentials: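 Cells were first stimulated with kynurenic acid, then exposed to test compound, after which firefly luciferase from a DRE-containing AHR reporter was read out. Signal was scaled between positive and negative controls. Cells not given kynurenic acid provided the inhibition reference.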

For assay [2], the target named is T2, AHR (Homo sapiens, UniProt P35869).
T2 construct: U87 MG glioblastoma cells (ATCC #HTB-14) endogenously expressing AHR; endogenous in cells; host or cells: U87 MG glioblastoma cells (ATCC #HTB-14)
T2 sequence (P35869 11-848): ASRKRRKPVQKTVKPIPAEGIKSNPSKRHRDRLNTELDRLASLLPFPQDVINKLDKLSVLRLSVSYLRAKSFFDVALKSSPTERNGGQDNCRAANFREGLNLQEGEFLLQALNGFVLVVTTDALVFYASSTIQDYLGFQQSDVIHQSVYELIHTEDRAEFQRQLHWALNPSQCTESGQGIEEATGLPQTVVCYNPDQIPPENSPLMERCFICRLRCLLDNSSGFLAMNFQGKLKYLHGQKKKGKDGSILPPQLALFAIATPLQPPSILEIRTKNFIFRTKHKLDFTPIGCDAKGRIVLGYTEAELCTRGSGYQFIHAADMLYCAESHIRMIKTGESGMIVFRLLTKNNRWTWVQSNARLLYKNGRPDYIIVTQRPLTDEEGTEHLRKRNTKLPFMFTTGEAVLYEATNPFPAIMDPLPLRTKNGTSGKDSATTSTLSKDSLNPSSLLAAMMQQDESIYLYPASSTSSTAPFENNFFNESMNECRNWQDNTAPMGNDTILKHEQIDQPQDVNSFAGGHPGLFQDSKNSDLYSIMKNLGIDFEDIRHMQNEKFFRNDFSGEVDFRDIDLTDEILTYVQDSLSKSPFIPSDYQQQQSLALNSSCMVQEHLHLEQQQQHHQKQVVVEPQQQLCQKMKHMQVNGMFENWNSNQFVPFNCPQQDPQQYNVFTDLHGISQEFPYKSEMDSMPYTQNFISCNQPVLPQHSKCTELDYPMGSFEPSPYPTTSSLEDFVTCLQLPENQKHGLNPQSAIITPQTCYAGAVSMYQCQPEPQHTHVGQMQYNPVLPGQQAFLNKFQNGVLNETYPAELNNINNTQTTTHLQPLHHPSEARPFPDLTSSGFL
Nature of the assay: In vitro assay 1: antagonism in human cell line (AHR transactivation, firefly luciferase reporter, kynurenic acid prestimulated). The class given is cell-based. The note with it: AHR Antagonism Human IC50 [M]. The essentials:
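U87 MG + DRE-firefly/constitutive-Renilla stable reporters; kynurenic acid prestim; dual-luc read; Renilla = tox; normalized vs pos/neg controls (pos: 150 μM KYNA + 5 μM staurosporine).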

[3] abbreviates: Hepa 1c1c7 cells, firefly luciferase reporter.

Like-named read-outs stand apart in the source and are kept apart here.

The text below walks through data of patent publication US20230113037A1 (Bayer Aktiengesellschaft, priority 2019, published 2023).

`COc1ccc(-c2nc3c4cccc(Br)c4nc(N[C@H](C)C(=O)NCCN4CCOCC4)n3n2)cc1` [Example 781, N^2-[7-bromo-2-(4-methoxyphenyl)[1,2,4]triazolo[1,5-c]quinazolin-5-yl]-N-[2-(morpholin-4-yl)ethyl]-D-alaninamide]: the IC50 at AHR [1] (mouse Hepa 1c1c7 cells) was determined as 2.09 nM; against AHR [2], 1.17e-09 M.
Consider `CCNC(=O)C(CC)Nc1nc2ccccc2c2nc(-c3ccccc3OC(F)(F)F)nn12` (single isomer, unassigned) [Example 664, N-ethyl-2-({2-[2-(trifluoromethoxy)phenyl][1,2,4]triazolo[1,5-c]quinazolin-5-yl}amino)butanamide], for which the IC50 on AHR [1] (mouse Hepa 1c1c7 cells) stood at 1.47 nM; on AHR [2] it was 1.26e-08 M.
Regarding `Cn1cc(-c2nc3c4cccc(Br)c4nc(N[C@H]4C[S+]([O-])CCNC4=O)n3n2)cn1` (single isomer, unassigned) [Example 849], the IC50 is 513 nM on AHR [1] (setting [3]) and 4.87e-07 M at AHR [2] (firefly luciferase reporter).
Take `O=C1NCCCC[C@H]1Nc1nc2ccccc2c2nc(-c3cncnc3)nn12` [Example 642, (3R)-3-{[2-(pyrimidin-5-yl)[1,2,4]triazolo[1,5-c]quinazolin-5-yl]amino}azepan-2-one]: the figures for the IC50 on AHR [1] (mouse Hepa 1c1c7 cells) and at AHR [2] were 683 nM and 3.34e-07 M, respectively.
Take `COc1ccc(-c2nc3c4ccccc4nc(N[C@@H]4CCCCNC4=O)n3n2)cc1OC` [Example 624, (3R)-3-{[2-(3,4-dimethoxyphenyl)[1,2,4]triazolo[1,5-c]quinazolin-5-yl]amino}azepan-2-one]: the IC50 at AHR [1] (mouse Hepa 1c1c7 cells) turned out to be 1.24 nM; at AHR [2], 3.49e-09 M.
For `C[C@@H](Nc1nc2c(Br)cccc2c2nc(-c3cnn(C)c3)nn12)C(=O)N1CC2(CN(C(=O)OC(C)(C)C)C2)C1` [Example 921, tert-butyl 6-{N-[7-bromo-2-(1-methyl-1H-pyrazol-4-yl)[1,2,4]triazolo[1,5-c]quinazolin-5-yl]-D-alanyl}-2,6-diazaspiro[3.3]heptane-2-carboxylate], the IC50 at AHR [1] (setting [3]) was 98.3 nM; at AHR [2] (firefly luciferase reporter), 4.24e-08 M.
`COc1cccc(-c2nc3c4ccccc4nc(N[C@H](C)C(=O)NC4CCC4)n3n2)c1` [Example 109, N-cyclobutyl-N^2-[2-(3-methoxyphenyl)[1,2,4]triazolo[1,5-c]quinazolin-5-yl]-D-alaninamide]: the IC50 was 4.15 nM on AHR [1] (mouse Hepa 1c1c7 cells) and 6.94e-09 M on AHR [2].
In the same order, the values of `CC[C@H](Nc1nc2ccccc2c2nc(-c3ccccc3S(C)(=O)=O)nn12)C(N)=O` [Example 450, (2S)-2-({2-[2-(methanesulfonyl)phenyl][1,2,4]triazolo[1,5-c]quinazolin-5-yl}amino)butanamide] are 8570 nM and above 2e-05 M.
With `C[C@@H](Nc1nc2c(C(F)(F)F)cccc2c2nc(-c3cnn(C)c3)nn12)C(=O)N(C)CCN(C)C` [Example 877, N-[2-(dimethylamino)ethyl]-N-methyl-N^2-[2-(1-methyl-1H-pyrazol-4-yl)-7-(trifluoromethyl)[1,2,4]triazolo[1,5-c]quinazolin-5-yl]-D-alaninamide], the IC50 amounted to 160 nM on AHR [1] (setting [3]) and 8.72e-08 M against AHR [2] (firefly luciferase reporter).
For the molecule `COc1ccc(-c2nc3c4cccc(OC)c4nc(N[C@@H]4CCCCNC4=O)n3n2)cc1` [Example 205, (3R)-3-{[7-methoxy-2-(4-methoxyphenyl)[1,2,4]triazolo[1,5-c]quinazolin-5-yl]amino}azepan-2-one], the half-maximal inhibitory concentration (IC50) on AHR [1] (mouse Hepa 1c1c7 cells) was 7.65 nM; at AHR [2] it was 2.15e-09 M.
In the same order, the values of `NC(=O)[C@@H](CO)Nc1nc2ccccc2c2nc(-c3ccc(OC(F)(F)F)cc3)nn12` [Example 329, N^2-{2-[4-(trifluoromethoxy)phenyl][1,2,4]triazolo[1,5-c]quinazolin-5-yl}-D-serinamide] are 2.89 nM and 5.94e-09 M.
`COc1ccc(-c2nc3c4cccc(OC5CC5)c4nc(N[C@@H]4CCCCNC4=O)n3n2)cc1` [Example 999, (3R)-3-{[7-(cyclopropyloxy)-2-(4-methoxyphenyl)[1,2,4]triazolo[1,5-c]quinazolin-5-yl]amino}azepan-2-one]: the half-maximal inhibitory concentration (IC50) on AHR [1] (setting [3]) was 4.27 nM; at AHR [2] (firefly luciferase reporter), 6.91e-09 M.
On to `Cc1ccccc1-c1nc2c3ccccc3nc(NC3CCNC3=O)n2n1` (stereo not shown) [Example 43, 3-{[2-(2-methylphenyl)[1,2,4]triazolo[1,5-c]quinazolin-5-yl]amino}pyrrolidin-2-one], for which the IC50 at AHR [1] (mouse Hepa 1c1c7 cells) amounted to 19.8 nM; against AHR [2], 8.65e-09 M.
In the case of `O=C1NCCC1Nc1nc2ccccc2c2nc(-c3cccc(F)c3)nn12` (stereo not shown) [Example 9, 3-{[2-(3-fluorophenyl)[1,2,4]triazolo[1,5-c]quinazolin-5-yl]amino}pyrrolidin-2-one], the IC50 on AHR [1] (mouse Hepa 1c1c7 cells) turned out to be 68 nM; on AHR [2], 2.62e-08 M.
On to `Cc1cc2c(cc1C(F)F)nc(N[C@@H]1CCCCNC1=O)n1nc(-c3cnn(C)c3)nc21` [Example 405, (3R)-3-{[8-(difluoromethyl)-9-methyl-2-(1-methyl-1H-pyrazol-4-yl)[1,2,4]triazolo[1,5-c]quinazolin-5-yl]amino}azepan-2-one], for which the IC50 is 792 nM on AHR [1] (mouse Hepa 1c1c7 cells) and 3.41e-07 M at AHR [2].
On to `Cn1cc(-c2nc3c4cccc(C(F)(F)F)c4nc(N[C@@H]4CNCCNC4=O)n3n2)cn1` [Example 425, (6R)-6-{[2-(1-methyl-1H-pyrazol-4-yl)-7-(trifluoromethyl)[1,2,4]triazolo[1,5-c]quinazolin-5-yl]amino}-1,4-diazepan-5-one], for which the IC50 turned out to be 23.9 nM at AHR [1] (mouse Hepa 1c1c7 cells) and 6.84e-09 M at AHR [2].
With `O=C1NCCCC[C@H]1Nc1nc2ccccc2c2nc(-c3cnn(C4COC4)c3)nn12` [Example 595, (3R)-3-({2-[1-(oxetan-3-yl)-1H-pyrazol-4-yl][1,2,4]triazolo[1,5-c]quinazolin-5-yl}amino)azepan-2-one], the IC50 was found to be 34 nM at AHR [1] (mouse Hepa 1c1c7 cells) and 5.18e-08 M at AHR [2].
Taken in the same sequence, the figures for `CN1CC[C@@H](Nc2nc3c(C(F)(F)F)cccc3c3nc(-c4cnn(C)c4)nn23)C1=O` [Example 733, (3R)-1-methyl-3-{[2-(1-methyl-1H-pyrazol-4-yl)-7-(trifluoromethyl)[1,2,4]triazolo[1,5-c]quinazolin-5-yl]amino}pyrrolidin-2-one] were 6640 nM and 2.58e-07 M.
For the molecule `CS(=O)(=O)c1ccc(-c2nc3c4ccccc4nc(N[C@@H]4CCCNC4=O)n3n2)cc1` [Example 374, (3R)-3-({2-[4-(methanesulfonyl)phenyl][1,2,4]triazolo[1,5-c]quinazolin-5-yl}amino)piperidin-2-one], the figures for the IC50 on AHR [1] (mouse Hepa 1c1c7 cells) and against AHR [2] were 211 nM and 4.49e-07 M, respectively.
In the case of `O=C1NCCNC[C@H]1Nc1nc2c(Br)cccc2c2nc(-c3ccccc3OC(F)(F)F)nn12` [Example 266, (6R)-6-({7-bromo-2-[2-(trifluoromethoxy)phenyl][1,2,4]triazolo[1,5-c]quinazolin-5-yl}amino)-1,4-diazepan-5-one], the values for the IC50 at AHR [1] (mouse Hepa 1c1c7 cells) and against AHR [2] were 2.17 nM and 3.29e-09 M, respectively.
